Experimental data taken from patent US5514694A, “Peptidyl ketoamides” (Georgia Tech Research Corp, priority 1993, dated 1996).

biological target: T1, Calpain I from human erythrocytes (Homo sapiens, UniProt P07384); assay: Calpain I inhibition, Suc-Leu-Tyr-AMC hydrolysis (KI); type: biochemical; settings: Table 1, Z-Leu--AA--CONHR; read-out: KI Cal I
T1 construct: Calpain I was purified from human erythrocytes; from tissue; host or cells: human erythrocytes
T1 sequence (P07384 1-714): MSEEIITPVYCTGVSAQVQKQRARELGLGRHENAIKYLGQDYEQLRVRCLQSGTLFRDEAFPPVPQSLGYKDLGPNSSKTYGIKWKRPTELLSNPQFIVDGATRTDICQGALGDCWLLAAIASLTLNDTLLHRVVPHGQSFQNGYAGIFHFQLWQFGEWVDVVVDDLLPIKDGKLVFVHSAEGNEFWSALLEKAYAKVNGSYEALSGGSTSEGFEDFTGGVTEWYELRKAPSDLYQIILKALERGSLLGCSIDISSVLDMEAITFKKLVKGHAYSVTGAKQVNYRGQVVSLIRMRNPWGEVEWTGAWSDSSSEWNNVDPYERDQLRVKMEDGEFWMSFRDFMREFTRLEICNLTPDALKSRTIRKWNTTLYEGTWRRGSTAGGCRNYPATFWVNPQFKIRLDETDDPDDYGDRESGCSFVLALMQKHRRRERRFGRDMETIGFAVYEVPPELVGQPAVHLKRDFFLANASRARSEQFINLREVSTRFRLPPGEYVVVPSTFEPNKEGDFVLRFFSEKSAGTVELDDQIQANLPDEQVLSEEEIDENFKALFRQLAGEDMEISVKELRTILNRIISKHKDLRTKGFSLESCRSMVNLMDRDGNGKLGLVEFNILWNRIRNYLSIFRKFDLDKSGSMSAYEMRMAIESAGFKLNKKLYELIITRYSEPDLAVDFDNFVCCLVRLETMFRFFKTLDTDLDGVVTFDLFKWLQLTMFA
T1 sequence (P04632 1-268 partner): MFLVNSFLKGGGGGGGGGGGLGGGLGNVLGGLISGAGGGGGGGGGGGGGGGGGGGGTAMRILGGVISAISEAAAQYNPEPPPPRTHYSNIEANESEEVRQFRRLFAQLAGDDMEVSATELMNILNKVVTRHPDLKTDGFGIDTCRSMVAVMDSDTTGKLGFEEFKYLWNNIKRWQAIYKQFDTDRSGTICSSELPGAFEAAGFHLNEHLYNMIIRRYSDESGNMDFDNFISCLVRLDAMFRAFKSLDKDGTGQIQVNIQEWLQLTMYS
Description: HEPES, heparin, and A23187 were obtained from Calbiochem. Suc-Leu-Tyr-AMC and chromogenic substrates were obtained from Sigma. Calpain I was purified from human erythrocytes according to the method of Kitahara (Kitahara et al., J. Biochem. 95, 1759-1766) omitting the Blue-Sepharose step. Calpain II from rabbit muscle and cathepsin B were purchased from Sigma. Papain was purchased from Calbiochem.
Peptide α-ketoamides were assayed as reversible enzyme inhibitors. Various concentrations of inhibitors in Me2 SO were added to the assay mixture which contained buffer and substrate. The reaction was started by the addition of the enzyme and the hydrolysis rates were followed spectrophotometrically or fluorimetrically.
Calpain I from human erythrocytes and calpain II from rabbit were assayed using Suc-Leu-Tyr-AMC Sasaki et al., J. Biol. Chem. 259, 12489-12494 (1984); incorporated herein by reference!, and the AMC (7-amino-4-methylcoumarin) release was followed fluorimetrically (excitation at 380 nm, and emmision at 460 nm). Calpains were assayed in 25 mM Tris pH=8.0, 10 mM CaC12. Fluorescence was followed using a Gilson FL-1A fluorometer or a Perkin-Elmer 203 Fluorescence spectrometer. Cathepsin B was assayed in 20 mM sodium acetate pH=5.2, 0.5 mM dithiothreitol using Bz-Phe-Val-Arg-p-nitroanilide as substrate. Alternately, cathepsin B was assayed with Z-Arg-Arg-AFC Barrett and Kirschke, Methods Enzymol. 80, 535-561 (1981); incorporated herein by reference!, and the AFC (7-amino-4-trifluoromethylcoumarin) release was followed fluorimetrically (excitation at 400 nm and emmision at 505 nm). Papain was assayed in 100 mM KPO4, 1 mM EDTA, 2.5 mM cysteine pH=6.0 using Bz-Arg-AMC or Bz-Arg-NA Kanaoka et al., Chem. Pharm. Bull. 25, 3126-3128 (1977); incorporated herein by reference! as a substrate. The AMC (7-amino-4-methylcoumarin) release was followed fluorimetrically (excitation at 380 nm, and emmision at 460 nm). Enzymatic hydrolysis rates were measured at various substrate and inhibitor concentrations, and KI values were determined by either Lineweaver-Burk plots or Dixon plots.
A 0.1M Hepes, 0.5M NaCl, pH 7.5 buffer was utilized for human leukocyte elastase (HLE), porcine pancreatic elastase (PPE), chymotrypsin and cathepsin G. A 0.1 Hepes, 0.01 M CaCl2, pH 7.5 buffer was utilized for trypsin, plasmin, and coagulation enzymes. A 50 mM Tris.HCl, 2 mM EDTA, 5 mM cysteine, pH 7.5 was used as a buffer for papain. A 88 mM KH2 PO4, 12 mM Na2 HPO4, 1.33 mM EDTA, 2.7 mM cysteine, pH 6.0 solution was used as a buffer for cathepsin B. A 20 mM Hepes, 10 mM CaCl2, 10 mM mercatoethanol, pH 7.2 buffer was utilized for calpain I and calpain II.

Ki [nM]	Compound
380	CC(C)CC(NC(=O)OCc1ccccc1)C(=O)NC(Cc1ccccc1)C(=O)C(=O)NCCCN1CCCc2ccccc21 (stereo not drawn) [Z-Leu-Phe-CONH--(CH2)3-1-Tetrahydroquinolinyl]
220	CC(C)CC(NC(=O)OCc1ccccc1)C(=O)NC(Cc1ccccc1)C(=O)C(=O)NCCNC(=O)CCCCC1SCC2NC(=O)NC21 (stereo not drawn) [Z-Leu-Phe-CONH-(CH2)2 NH-biotinyl, Z-Leu-Phe-CONH--(CH2)2 NH-Biotinyl]
220	CC(C)CC(NC(=O)OCc1ccccc1)C(=O)NC(Cc1ccccc1)C(=O)C(=O)NCCCN1CCc2ccccc2C1 (stereo not drawn) [Z-Leu-Phe-CONH--(CH2)3-2-Tetrahydroisoquinolinyl]

The next lines start with the compound.

Compound	Ki [nM]
CCC(NC(=O)[C@H](CC(C)C)NC(=O)OCc1ccccc1)C(=O)C(=O)NCc1ccc2ccccc2n1 (stereo partly drawn) [Z-Leu-Abu-CONH-CH2 -2-quinolinyl, Z-Leu-Abu-CONH--CH2 -2-Quinolinyl]	130
CCC(NC(=O)C(CC(C)C)NC(=O)OCc1ccccc1)C(=O)C(=O)NCCCN1CCCc2ccccc21 (stereo not drawn) [Z-Leu-Abu-CONH--(CH2)3 -1-Tetrahydroquinolinyl]	370
CCC(NC(=O)C(CC(C)C)NC(=O)OCc1ccccc1)C(=O)C(=O)NCc1ccc[n+]([O-])c1 (stereo not drawn) [Z-Leu-Abu-CONH-CH2 -3-pyridyl-N-oxide, Z-Leu-Abu-CONH--CH2 -3-Pyridyl-N-oxide]	9500
CCC(NC(=O)C(CC(C)C)NC(=O)OCc1ccccc1)C(=O)C(=O)NCc1cc(=O)[nH]c(=O)[nH]1 (stereo not drawn) [Z-Leu-Abu-CONH-CH2 -6-uracil, Z-Leu-Abu-CONH--CH2 -6-Uracil]	9000
CCC(NC(=O)C(CC(C)C)NC(=O)OCc1ccccc1)C(=O)C(=O)NCc1nc(C)cs1 (stereo not drawn) [Z-Leu-Abu-CONH-CH2 -2-(4-methylthiazole), Z-Leu-Abu-CONH--CH2 -2-(4-Methyl-2-thiazolyl)]	34000

same assay, conditions: Table 2, Z-Leu--AA--CONH--CH2 CH(OH)-R; read-out: KI Cal I

Ki [nM]	Compound
350	CCC(NC(=O)C(CC(C)C)NC(=O)OCc1ccccc1)C(=O)C(=O)NCC(O)c1ccc2ccccc2c1 (stereo not drawn) [Z-Leu-Abu-CONH-CH2 CH(OH)-2-C10 H7, Z-Leu-Abu-CONH--CH2 CH(OH)-2-C10 H7]
600	CC(C)CC(NC(=O)OCc1ccccc1)C(=O)NC(Cc1ccccc1)C(=O)C(=O)NCC(O)c1cccc(Oc2ccccc2)c1 (stereo not drawn) [Z-Leu-Phe-CONH-CH2 CH(OH)-C6 H4 (3-OPh), Z-Leu-Phe-CONH--CH2 CH(OH)C6 H4 (3-OPh)]
590	CC(C)CC(NC(=O)OCc1ccccc1)C(=O)NC(Cc1ccccc1)C(=O)C(=O)NCC(O)c1cccc(Oc2ccc(Cl)c(Cl)c2)c1 (stereo not drawn) [Z-Leu-Phe-CONH--CH2 CH(OH)C6 H4 -3-OC6 H3 (3,4-Cl2)]
460	Z-Leu-Phe-CONH--CH2 CH(OH)C6 H4 (3-CF3) [Z-Leu-Phe-CONH-CH2 CH(OH)-C6 H4 (3-CF3)]
700	CC(C)CC(NC(=O)OCc1ccccc1)C(=O)NC(Cc1ccccc1)C(=O)C(=O)NCC(O)c1c(F)c(F)c(F)c(F)c1F (stereo not drawn) [Z-Leu-Phe-CONH-CH2 CH(OH)-C6 F5, Z-Leu-Phe-CONH--CH2 CH(OH)C6 F5]

Continued, compound first:

Compound	Ki [nM]
CCC(NC(=O)C(CC(C)C)NC(=O)OCc1ccccc1)C(=O)C(=O)NCC(O)c1cccc(Oc2ccc(Cl)c(Cl)c2)c1 (stereo not drawn) [Z-Leu-Abu-CONH--CH2 CH(OH)C6 H4 -3-OC6 H3 (3,4-Cl2)]	270
Z-Leu-Abu-CONH--CH2 CH(OH)C6 H2 (2,4,6-(OCH3)3)	380
CCC(NC(=O)C(CC(C)C)NC(=O)OCc1ccccc1)C(=O)C(=O)NCC(O)c1cccc2ccccc12 (stereo not drawn) [Z-Leu-Abu-CONH-CH2 CH(OH)-1-C10 H7, Z-Leu-Abu-CONH--CH2 CH(OH)-1-C10 H7]	120

same assay, conditions: Table 3, M1 CO-Leu--AA--CONH-R; read-out: KI Cal I

Ki [nM]	Compound
1300	CCNC(=O)C(=O)C(CC)NC(=O)C(CC(C)C)NC(=O)c1cccnc1 (stereo not drawn) [3-pyridyl-CO-Leu-Abu-CONH-Et, 3-Pyridyl-CO-Leu-Abu-CONHEt]
7900	CCNC(=O)C(=O)C(CC)NC(=O)C(CC(C)C)NC(=O)N1CCOCC1 (stereo not drawn) [4-morpholinyl-CO-Leu-Abu-CONH-Et, 4-Morpholinyl-CO-Leu-Abu-CONHEt]
350	CCNC(=O)C(=O)C(CC)NC(=O)C(CC(C)C)NC(=O)c1nccc2ccccc12 (stereo not drawn) [1-isoquinolinyl-CO-Leu-Abu-CONH-Et, 1-Isoquinolinyl-CO-Leu-Abu-CONHEt]
18500	CCNC(=O)C(=O)C(CC)NC(=O)C(CC(C)C)NC(=O)C1CCCO1 (stereo not drawn) [2-tetrahydrofuryl-CO-Leu-Abu-CONH-Et, 2-Tetrahydrofuryl-CO-Leu-Abu-CONHEt]
750	CCC(NC(=O)C(CC(C)C)NC(=O)C(c1ccccc1)c1ccccc1)C(=O)C(=O)NCC(O)c1ccccc1 (stereo not drawn) [Ph2 CH-CO-Leu-Abu-CONH-CH2 CH(OH)Ph, Ph2 CHCO-Leu-Abu-CONH--CH2 CH(OH)Ph]
3800	CCNC(=O)C(=O)[C@H](CC)NC(=O)[C@H](CC(C)C)NC(=O)CCC(=O)OC [CH3 OCO(CH2)2-CO-Leu-Abu-CONH-Et, CH3 OCO(CH2)2 CO-Leu-Abu-CONHEt]
5000	Ph2 CHCO-Leu-Abu-CONHEt [Ph2 CH-CO-Leu-Abu-CONH-Et]
300	CCNC(=O)C(=O)C(CC)NC(=O)C(CC(C)C)NC(=O)c1cnccn1 (stereo not drawn) [2-pyrazinyl-CO-Leu-Abu-CONH-Et, 2-Pyrazinyl-CO-Leu-Abu-CONHEt]
850	CCNC(=O)C(=O)C(CC)NC(=O)C(CC(C)C)NC(=O)c1ccco1 (stereo not drawn) [2-furyl-CO-Leu-Abu-CONH-Et, 2-Furyl-CO-Leu-Abu-CONHEt]
